From PMC3130785, “Small Compound 6-O-Angeloylplenolin Induces Mitotic Arrest and Exhibits Therapeutic Potentials in Multiple Myeloma” (PLoS ONE, 2011) come the findings set out here.

This assay deals with phosphorylated H3 (pH3). The experiment in a line: Western blotting of mitotic marker. In kind it is cell-based, human. Particulars: U266, MM.1S and CD138+ primary cells; 24 h. As to the method:
Cell pellets were lysed in RIPA buffer containing 50 mM Tris pH 8.0, 150 mM NaCl, 0.1% SDS, 0.5% deoxycholate, 1% NP-40, 1 mM DTT, 1 mM NaF, 1 mM sodium vanadate, and protease inhibitors cocktail (Sigma). For immunoprecipitations, cells were lysed on ice for 15 minutes in RIPA buffer. Lysates were centrifuged. The supernatant was incubated with indicated antibodies overnight, after which protein A/G Plus beads (Santa Cruz Biotechnology) were added and incubated for 3 h. The beads were washed 4 times in RIPA buffer. Then the beads were resuspended in 1× sample buffer and boiled for 3 min. Protein extracts were quantitated and loaded on 8% to 12% sodium dodecyl sulfate polyacrylamide gel, electrophoresed, and transferred to a nitrocellulose membrane (Whatman). The membrane was incubated with primary antibody, washed, and incubated with horseradish peroxidase (HRP)–conjugated secondary antibody (Pierce). Detection was performed by using a chemiluminescent western detection kit (Cell Signaling). […]
Figure 2 6-OAP induces mitotic arrest in MM cells. […] Cell cycle distribution was determined by flow cytometry. […] Cell cycle distribution was determined by flow cytometry. […]
For orientation: Immunoblotting shows a protein as a band on a membrane.

Molecules are shown by their SMILES.

On to `CC=C(C)C(=O)OC1C2C(CC(C)C3C=CC(=O)C31C)OC(=O)C2C` (stereo not shown) [6-OAP, 6-O-angeloylplenolin], for which the “expression of pH3” value was “up-regulated pH3”.
